# Measurements: ChEMBL document CHEMBL3507680, “University of Dundee, Gates Library screen for HepG2 cell viability”
# Test: Human HepG2 cell viability assay in 384 well format
# Type: toxicity, cell-based
# Design: dose 125 nL, time 70.5 hour; cytotoxicity at 70.5 h: concentration not given beside the values
# Conditions: HepG2 cells, read-out: Inhibition
row,Structure (SMILES),cytotoxicity at 70.5 h
1,O=C(C1CC1)N1CCC(C(=O)N2CCC(c3ccc(F)cc3)C2)CC1 (configuration not stated),8.64%
2,CC(C)c1cnc(CN2CCCC(c3cc(C(N)=O)[nH]n3)C2)o1 (configuration not stated),2.28%
3,O=c1[nH]cc(N2CCCCC2)c(=O)[nH]1,-3.72%
4,Nc1cc(C(=O)N2CCOC(Cc3cccc(C(F)(F)F)c3)C2)ccn1 (configuration not stated),-7.49%
5,Cn1nccc1CNC(=O)CCn1nc(C(F)(F)F)c(Cl)c1C1CC1,-3.15%
6,Cn1ccc(C(=O)N2CCOC(c3ccccn3)C2)cc1=O (configuration not stated),6.02%
7,CSCC(C)(O)CNC(=O)Nc1cc(C)cc(C)c1 (configuration not stated),-5.72%
8,COc1cccc(CNC(C)c2ccc(-n3ccnc3)cc2)c1OC (configuration not stated),-8.35%
9,CN(C)c1nc2c(c(N3CCCC3)n1)CCN(C(=O)c1ccc[nH]1)CC2,25.5%
10,CCc1nnc(SCc2nonc2C)n1C,-11.2%
11,CN(Cc1ccc(F)cc1)C(=O)Cn1nc(-c2ccc(F)cc2)oc1=O,26.3%
12,O=C1CO[C@H]2CN(Cc3ccccc3Br)C[C@@H]2N1,20.8%
13,O=C(NCCNc1cc(-n2cccc2)ncn1)c1cccs1,-4.09%
14,CC(C)NC(=O)c1cc(Br)c2c(c1)OCCO2,-6.96%
15,CC1COCCN1Cc1nc(-c2ccc(F)cc2)no1 (configuration not stated),-0.197%
16,Cc1cccc(CNC[C@H]2COCc3nc4cccnc4n32)n1,-9.5%
17,O=C(Cn1[nH]c2ccccc2c1=O)N1CCCC(CC2CC2)(C(=O)O)C1 (configuration not stated),-7.99%
18,Cn1ncnc1CNc1ccc2c(c1)N(C(=O)OC(C)(C)C)CCC2,-8.19%
19,c1nc(N2CCCCC2Cn2cncn2)c2ccsc2n1 (configuration not stated),14.7%
20,CCS(=O)(=O)c1ccc2oc([C@H]3CCN(Cc4cccnc4)C3)nc2c1,9.25%
21,CNC(=O)CS(=O)(=O)C1CCN(S(=O)(=O)c2ccccc2Cl)CC1,23.7%
22,CCN(CC)CCn1c(=O)oc2ccccc21,-3.03%
23,CNc1nc(CNC(=O)Nc2ccc(SC)c(F)c2)cs1,-1.49%

row,Structure (SMILES),cytotoxicity at 70.5 h
1,CC(C)(CNC(=O)NCCc1ccn(-c2ccccc2)n1)C(N)=O,-6.77%
2,COCCN(Cc1nccs1)C(=O)c1c(C)cc(C)[nH]c1=O,12.2%
3,COc1cc2nc(NCCN3CCNC3=O)cc(C)c2cc1OC,-0.54%
4,CCn1c(CN2CCCC2)nnc1C1CCN(S(=O)(=O)CC)CC1,-2.53%
5,Cc1ccnc(NC(=O)c2cncc(C3CCNCC3)n2)c1,-10.4%
6,CCCN1CC2(CCN(C)CC2)CC1C(=O)NCCn1cccn1 (configuration not stated),-6%
7,Cc1cccc(CN2CC[C@H]3C[C@@H](C)O[C@@H]3C2)n1,10.9%
8,COc1ccc(C(=O)N2Cc3c(Cn4ccnc4)nn(C)c3C2)cc1,-8.74%
9,CC[C@@]1(O)CCN(C(=O)CN(C)Cc2ccc(F)cc2)C[C@H]1O,17.3%
10,Cc1cccc(CN2CC[C@H]3[C@@H]2CC(=O)N3CC2CC2)n1,-9.45%
11,CN(Cc1cnccn1)S(=O)(=O)N1CCCC1c1ccco1 (configuration not stated),1.01%
12,CS(=O)(=O)NCCCNC(=O)c1cccnc1O,-4.43%
13,Cc1nnc(CN2CCN(C(C)c3nc(C4CC4)no3)CC2)o1 (configuration not stated),-1.41%
14,CCN1CCN(C(=O)c2[nH]c3ccccc3c2Cl)[C@H]2CS(=O)(=O)C[C@H]21,-2.45%
15,Cc1csc2c(=O)n(CCN3CCC(c4ccccc4)CC3)cnc12,-3.26%
16,CNS(=O)(=O)Cc1cccc(CNc2ccc(C#N)cn2)c1,-10.5%
17,CC(C)(C)NC(=O)CNc1ncc(Br)cn1,0.722%
18,CCN(C)c1ncnc2c1CCN(C(=O)c1ccc(C)o1)CC2,-11.3%
19,c1ncc2c(n1)CN(CC1CCCCO1)CC2 (configuration not stated),6.75%
20,CN(C)CCCn1ccnc1C1CCCN(c2cc(N)ncn2)C1 (configuration not stated),-4.4%
21,CCn1c(NCc2cccnc2)nc2c(C)nn(C)c2c1=O,-4.56%
22,Cn1ncc2c(=O)[nH]c(CN3CCCC3c3cccc(F)c3)nc21 (configuration not stated),-7.63%
23,CC(C)(C)N1CCCN(C(=O)c2csc(S(N)(=O)=O)c2)CC1,15.7%

row,Structure (SMILES),cytotoxicity at 70.5 h
1,O=C(NC[C@H]1OC[C@@H](NC2CCC2)[C@@H]1O)Nc1ccccc1,16.4%
2,COc1cc(NCc2ccc(Cl)cc2)c(-c2nn[nH]n2)cc1OC,-0.792%
3,Cc1cccn2cc(C(=O)N3CCCN(CC4CC4)C(C(C)C)C3)nc12 (configuration not stated),-8.2%
4,CN(C)C(=O)C1CN(Cc2ccccc2)CCN(S(C)(=O)=O)C1 (configuration not stated),-6.37%
5,Cn1cc(CN2CC[C@H](O)[C@@H]2Cc2ccncc2)cn1,26%
6,O=C1N(CCCc2ccccc2)CCCC1(O)CNCC1CCCCC1 (configuration not stated),6.76%
7,Cc1nccc(N[C@H]2CN(C(=O)CN3CCCC3=O)C[C@@H]2C(C)C)n1,-19.5%
8,COCCS(=O)(=O)NC(C)c1ccccc1Br (configuration not stated),-0.0652%
9,CC1CCN(C(=O)[C@@H]2C[C@@H]3CCN(Cc4nccs4)C[C@H]3O2)CC1,-6.62%
10,c1cncc(CN2CCCC3(COCCN(c4cncnc4)C3)C2)c1 (configuration not stated),-6.01%
11,Cc1c(C(C)NC(=O)C2CCCCC2)cnn1C (configuration not stated),5.03%
12,CC1=C[C@@H](CN2CCC(O)CC2)[C@H](C(C)C)C[C@H]1Cc1nnc(C)o1,-4.6%
13,Cc1ccc(C2COCCN2C(=O)c2ccc(N(C)C)cc2)o1 (configuration not stated),-8.97%
14,COCCN1C(=O)C[C@H]2[C@H]1CCN2Cc1ccc(OC)cc1,-7.39%
15,CCCn1nccc1-c1cnc(CC2CCN(C(C)=O)C2)cn1 (configuration not stated),-3.63%
16,CCN1CCN(C(=O)C(C)SC)CC1 (configuration not stated),-6.96%
17,O=C1Nc2ccccc2C12CCN(Cc1nccs1)CC2,-1.05%
18,Cn1cnnc1CNC(=O)Nc1ccc(OC2CCC2)c(F)c1,-4.19%
19,Cc1csc(NC(=O)c2cnc(C3CCCN(C)C3)cn2)n1 (configuration not stated),-8.15%
20,O=C(NC1(C(=O)O)CCCCC1)C1Cc2ccccc2O1 (configuration not stated),-3.59%
21,CNC(=O)C1Cn2ccnc2C2(CCN(C(=O)c3ccoc3C)CC2)O1 (configuration not stated),-5.12%
22,Cc1csc(N2CCN(C(=O)Cc3ccsc3)CC2)n1,31.2%
23,CS(=O)(=O)N1CCC(C(=O)Nc2nnc(C(F)(F)F)[nH]2)CC1,-6.85%

row,Structure (SMILES),cytotoxicity at 70.5 h
1,OC1CCN(Cc2c(C3CCCNC3)[nH]c3ncccc23)CC1 (configuration not stated),-22.4%
2,COCC(=O)N1CCC(=O)N(C2CCCC2)Cc2ccccc21,6.82%
3,c1cc(-c2ccc3c(c2)CCC32CCN(c3nncs3)CC2)ccn1,-2.69%
4,COC[C@@]12CCC[C@@H]1CN(C(=O)COc1ccccc1OC)C2,-3.63%
5,Cc1cnn(CC2CCCN2C(=O)c2ccc3cc[nH]c3c2)c1 (configuration not stated),0.784%
6,CN1[C@H](CO)C[C@H](CNCc2ccc(CO)o2)[C@@H]1c1ccccc1F,-4.51%
7,Cn1c2ccccc2c2ncn(CCN3CCOCC3)c(=O)c21,11.8%
8,CC(=O)N1CC(C(=O)N2CCCC(Cn3ccnc3C)C2)C1 (configuration not stated),-9.41%
9,Cc1noc(CS(=O)(=O)C/C=C/c2ccccc2)n1,-19.1%
10,C1CN(CC2CCOCC2)Cc2c(COCC3CC3)nnn2C1,-7.76%
11,CCS(=O)(=O)N1CCOC2(CCCN(c3cccc(C#N)c3)C2)C1 (configuration not stated),-5.28%
12,CS(=O)(=O)N1CC[C@@H](CC(=O)O)[C@@H](CC2=NCCc3cc(F)ccc32)C1,-6.32%
13,O=C(NC1CCCN(c2ncccn2)C1)c1cn2ccccc2n1 (configuration not stated),-6.6%
14,Cc1nnn2c1COC(CNCc1nccs1)C2 (configuration not stated),2.74%
15,COc1cc(N2C[C@@H](C)[C@](O)(C3CC3)C2)nc(N)n1,-3.32%
16,O=C1Cc2cc(NC(=O)N3CCCN(Cc4cccs4)CC3)ccc2N1,-4.49%
17,COCCC(=O)NCc1cccnc1-n1cnc2ccccc21,6.94%
18,COC(=O)c1cc(C(=O)N2CCc3ccc(F)cc3C2C)ccn1 (configuration not stated),-0.61%
19,CCN(C)CC1CCN(c2ncc(Br)cn2)C1 (configuration not stated),9.92%
20,CSc1cccc(CN(C)C(=O)C2CC(=O)N(CCN(C)C)C2)c1 (configuration not stated),5.8%
21,CCn1nc(C)c2nc(C(C)C)nc(N3CCCC3)c21,15.3%
22,CC(=O)N1CCOC2(CCCN(C(=O)CCN3CCCCC3)C2)C1 (configuration not stated),-1.24%
23,CNC(=O)c1cc2c(nc1N(C)C)CCN(S(=O)(=O)C1CC1)CC2,20.2%

row,Structure (SMILES),cytotoxicity at 70.5 h
1,Cc1nc(Nc2nnc(C)s2)cc(C2CCCN2S(C)(=O)=O)n1 (configuration not stated),-1.79%
2,CN(Cc1nccn1C)C1CCCN(Cc2noc(C3CC3)n2)C1 (configuration not stated),15.8%
3,O=C1N(c2cccnc2)CCC12CCCN(Cc1ccco1)C2 (configuration not stated),-3.89%
4,Cc1ccc(N2CCCN(C(=O)C(C)OCC3CC3)CC2)nn1 (configuration not stated),-11.3%
5,Cc1cc(CN2CCC(CNC(=O)CN3CCCCCC3)C2)[nH]n1 (configuration not stated),14.2%
6,Cn1c(Cn2ncc(N3CCCCC3)cc2=O)nc2ccccc21,44.3%
7,NC(=O)C1CCN(C(=O)Cc2ccc(Cl)c(Cl)c2)CC1,-2.27%
8,NC(=O)Cn1cc(NC(=O)NCCN2CCc3ccccc3C2)cn1,-5.44%
9,CCS(=O)(=O)N1CCCC(c2nccn2Cc2cccnc2)C1 (configuration not stated),-7.4%
10,Cc1cc(C(=O)NCc2ccc(N3CCCC(C(N)=O)C3)cc2)no1 (configuration not stated),-12.6%
11,O=C(c1cccnc1)N1CCCC(c2ncncc2-c2ccncc2)C1 (configuration not stated),-5.25%
12,Cc1nc(C(=O)N2CCN(S(C)(=O)=O)CC2)c(-c2cccc(F)c2)s1,9.8%
13,CCC(NC(=O)CCCN1CCCCC1)c1cn2cccnc2n1 (configuration not stated),-0.954%
14,O=C(c1cnccn1)N1C[C@@H](c2ccccc2)[C@@]2(CCNC2=O)C1,-4.45%
15,Cc1ccc(NC(=O)N2CCCC(N(C)C)C2)c(Br)c1 (configuration not stated),-3.97%
16,COc1ccc(CN2CCn3cc(CNC(=O)C4CCC4)nc3C2)cc1,7.38%
17,Cc1ccccc1C(C)CC(=O)N1CC[C@H](O)C1 (some centres not stated),-2.39%
18,CO[C@H]1CN(C(=O)c2ccc3oc(C)cc3c2)CC[C@@]12CCCO2,-13.4%
19,O=C(c1ccncc1)N1C[C@@H]2CC[C@H](C1)N(S(=O)(=O)c1cccnc1)C2,-5.9%
20,CS(=O)(=O)N[C@@H]1CN(C(=O)c2cnccn2)[C@@H]2CCCO[C@@H]21,29.4%
